Laboratory results: patent US20210338550A1, “ANTIMICROBIAL MIXTURE CONTAINING 4-(3-ETHOXY-4-HYDROXYPHENYL)BUTAN-2-ONE AND CHLORPHENESIN, AND COSMETIC COMPOSITION CONTAINING SAME” (L'OREAL, priority 2017, published 2021)

Tested on: Aspergillus niger ATCC 6275
Test: Determination of synergistic antimicrobial activity in MIC (96-well microplate, optical density at 620 nm)
Assay type: cell-based
Conditions: for microbial growth percentage: 32.5° C., 24 to 48 hours
From the text: FIC Index=(MICa with B/MICa)+(MICb with A/MICb)
with: • MICa with B: minimum concentration of product A in the combination A+B which makes it possible to obtain an inhibitory effect. • MICb with A: minimum concentration of product B in the combination A+B which makes it possible to obtain the inhibitory effect. • MICa: minimum inhibitory concentration of product A alone. • MICb: minimum inhibitory concentration of product B alone.
As regards the combinations tested, MICa with b and MICb with a are the respective concentrations of A and of B in the combinations which make it possible to obtain a microbial growth percentage of less than or equal to 25%.
When the FIC index value is less than or equal to 1, it is considered that the combination of test compounds has a synergistic effect.
The microbial strain Aspergillus niger ATCC 6275, and a double-concentration Sabouraud broth liquid culture medium supplemented with polyoxyethylenated (20 OE) sorbitan monopalmitate (Tween 40 from Croda) and Phytagel® BioReagent were used (i.e. a mixture of 5 g of Phytagel+0.6 g Tween 40+60 g of Sabouraud broth).
A 96-well microplate at an incubation temperature of 32.5° C. is used.
The incubation time of the microplate is from 24 to 48 hours aerobically.
A 10% (weight/volume) stock solution was prepared by mixing 1 g of compound in 9 ml of aqueous 1‰ agar solution. Successive dilutions were made with the 1‰ agar solution. • Test of compounds A and B alone
50 μL of each of the daughter solutions obtained containing compound A or B are added to the microplate wells. 100 μL of Sabouraud liquid nutrient broth inoculated with the strain Aspergillus niger and 50 μL of aqueous 1‰ agar solution are also added thereto. • Test of compounds A and B as a mixture
50 μL of each of the daughter solutions obtained containing compound A and 50 μL of each of the daughter solutions obtained containing compound B are added to the microplate wells. 100 μL of Sabouraud liquid nutrient broth inoculated at double concentration with the strain Aspergillus niger are also added thereto.
A positive microbial growth control was also prepared. The positive microbial growth control corresponds to a mixture of 100 μL of aqueous 1‰ agar solution with 100 μL of Sabouraud liquid nutrient broth inoculated at double concentration with the strain Aspergillus niger in the absence of compounds A and B.
An absorbance control was performed in parallel on compounds A and B alone. This control corresponds to 100 μL of double concentration sterile Sabouraud liquid nutrient broth+100 μL of double concentration compound A or B.
In the three cases (absorbance control, growth control and test), the final volume present in each of the microplate wells is 200 μL.
In the two cases (test and control), the inoculum represents the concentration of the strain Aspergillus niger present in the final volume of the wells (200 μL) and is between 2 and 6×10^5 cfu/ml of Aspergillus niger.
The minimum inhibitory concentration (MIC) of each compound A and B alone and in combination was determined in a known manner by means of optical density measurements at a wavelength of 620 nm.

[1] = first concentration giving growth <= 25%

| Compound | microbial growth percentage (0.0625 weight % A alone (0 B)) [%] | microbial growth percentage (0.125 weight % A alone (0 B)) [%] | microbial growth percentage (0.25 weight % A alone (0 B)) [%] | % MIC of A alone [1] [%] | microbial growth percentage (0.0125 weight % B alone (0 A)) [%] | microbial growth percentage (0.25 weight % B alone (0 A)) [%] | microbial growth percentage (0.5 weight % B alone (0 A)) [%] | % MIC of B alone [1] [%] |
| --- | --- | --- | --- | --- | --- | --- | --- | --- |
| CCOc1cc(CCC(C)=O)ccc1O [A, 4-(3-ethoxy-4-hydroxyphenyl)butan-2-one] | 79 | 41 | 5 | 0.25 |  |  |  |  |
| OCC(O)COc1ccc(Cl)cc1 (centres unmarked) [B, 3-(4-chlorophenoxy)-1,2-propanediol] |  |  |  |  | 71 | 38 | 1 | 0.5 |
